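Cultured in 96-well plates, cells were exposed to test compound for 48 hours across five concentrations. Definition used: TGI = concentration required for complete inhibition of growth.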

Holding throughout (assay): growth of human tumour cells (NCI), 48 h
Assay [1] has as its system HOP-18 NSCLC.
Assay [2] concerns KM20L2 colon.
Assay [3] concerns XF 498 CNS.
Assay [4] concerns OVCAR-5 ovarian.
Assay [5] concerns HCT-116 colon.
Assay [6] deals with DMS 114 small cell lung.
For assay [7], the system named is LXFL 529 NSCLC.
For assay [8], the system named is SNB-78 CNS.
Assay [9] concerns DLD-1 colon.
Assay [10] has as its system KM12 colon.
Assay [11] deals with TK-10 renal.
Assay [12] has as its system M19-MEL melanoma.
Assay [13] deals with DMS 273 small cell lung.
The test system of assay [14] is RXF-631 renal.

`Oc1ccc(-c2c3ccccc3c(-c3ccc(O)cc3)c3ccccc23)cc1`: the TGI in assay [1], in [2], in assay [3], in assay [4], in assay [5] and in [6] was greater than 100 µM in each case. In addition, the TGI in assay [7], in assay [8], in assay [9], in [10], in [11] and in [12] was greater than 100 µM throughout. In [13], this compound yielded a TGI greater than 100 µM.
Turning to `COC1(OC)CC2C(=O)N(Cc3ccccc3)C1C(S(=O)(=O)c1ccccc1)C2C(C)S(=O)(=O)c1ccccc1` (stereo not drawn), the TGI in [1], in assay [2], in assay [3], in assay [4], in assay [5] and in assay [6] was greater than 100 µM in each case. Further, the TGI in assay [7], in assay [8], in [9], in assay [10], in [11] and in assay [12] was greater than 100 µM throughout. In assay [13], this compound had a TGI greater than 100 µM.
For the compound `c1ccc2c(c1)nnn2CNc1ccc(N2CCCCC2)cc1`, the TGI in assay [1], in assay [2], in assay [3], in assay [5], in [6] and in assay [7] was greater than 100 µM in each case. For the same compound, the TGI in [8], in [9], in [10], in [11] and in assay [13] was greater than 100 µM in each case.
With `Cc1ccc2nc(N)[nH]c(=O)c2c1Sc1ccncc1`, the TGI in [1], in assay [2], in assay [3], in assay [4], in [5] and in assay [6] was greater than 100 µM in each case. In addition, the TGI in assay [7], in assay [8], in assay [9], in assay [10], in assay [11] and in assay [12] was greater than 100 µM throughout. The TGI in assay [13] is greater than 100 µM.
Regarding `O=C1NC(=O)C(C(=O)C(=O)Nc2cc(Cl)ccc2Cl)C(=O)N1`, the TGI in assay [2], in [4], in [5], in assay [6], in assay [7] and in assay [8] was greater than 100 µM each time. The TGI in assay [9], in [10], in assay [11], in assay [14] and in [12] was greater than 100 µM in each case.
For the compound `O=c1oc2cc(O)ccc2c2[nH]c3cc(O)ccc3c12`, the TGI in [1] was greater than 100 µM; in [2] it was greater than 100 µM; in [3], 73.6 µM; in [5], 31.5 µM; in assay [6] it was 53.8 µM; in [7] it was greater than 100 µM. Also, the TGI is greater than 100 µM in [8]; 74.8 µM in [9]; 53.1 µM in assay [10]; greater than 100 µM in assay [11]; 98.7 µM in assay [12]; 88.6 µM in assay [13].
Turning to `C[N+]1=C(c2cccnc2/C=N/O)OCC1(C)C`, the TGI in assay [1], in [2], in assay [3], in [4], in assay [5] and in assay [6] was greater than 100 µM throughout. Besides, the TGI in assay [7], in assay [8], in assay [9], in assay [10], in [11] and in [12] was greater than 100 µM in each case. In [13], this compound came in with a TGI greater than 100 µM.
Take `[N-]=[N+]=CC(=O)C1(C(=O)C=[N+]=[N-])CC1`: the TGI in [1], in assay [2], in assay [3], in assay [4], in assay [5] and in assay [6] was greater than 100 µM throughout. The TGI in assay [7], in assay [8], in [10], in assay [11], in [12] and in [13] was greater than 100 µM throughout.
As for `Cc1ccc(S(=O)(=O)NC(=O)C2S(=O)(=O)OCCOS2(=O)=O)cc1`, the TGI in assay [3], in [5], in [7], in assay [8], in [9] and in [10] was greater than 100 µM each time. For the same compound, the TGI in [11], in assay [14], in [12] and in assay [13] was greater than 100 µM each time.
